# Like-named read-outs stand apart in the source and are kept apart here.
# How the values were obtained:
# [1] = tested on: Vγ2Vδ2 T cells; assay: gammadelta T cell stimulation (TNF-α release assay); assay type: cell-based, human
# Source text: (§1) We then investigated the activity of each compound in inhibiting the FPPS from L. major, in Dictyostelium discoideum growth inhibition and in γδ T cell activation. We used the FPPS from L. major since this enzyme is the putative bisphosphonate target in several trypanosomatid species.
# [2] = tested on: Dictyostelium discoideum; assay: D. discoideum cell growth inhibition; assay type: cell-based
# Source text: as §1
# [3] = Table 4, read-out: (3) gammadelta T cell stimulation EC50
# [4] = Table 4, read-out: (1) D. discoideum IC50
# [5] = Table 3, additional testing, read-out: gammadelta T cell stimulation EC50
# [6] = cell growth inhibition, Table 1 and text, read-out: D. discoideum IC50
# [7] = TNF-α release, Table 1 and text, read-out: gammadelta T cell stimulation, EC50
# [8] = Dictyostelium discoideum, read-out: (1) D. discoideum IC50
# [9] = Homo sapiens, T-cell, read-out: (3) gammadelta T cell stimulation EC50
SMILES,"EC50 [1, 3] [µM]","IC50 [2, 4] [µM]",also measured
O=P([O-])(O)C(O)(C[n+]1cc(F)cc(-c2ccccc2)c1)P(=O)(O)O (centres unmarked) [Compound 534],16,,
O=P([O-])(O)C(O)(C[n+]1ccc(-c2ccncc2)cc1)P(=O)(O)O (centres unmarked) [Compound 471],,,(1) D. discoideum IC50 ([2]; Table 4): inactive; (3) gammadelta T cell stimulation EC50 ([1]; Table 4): inactive
CP(=O)([O-])C(C[n+]1cccc(-c2ccccc2)c1)P(C)(=O)O (centres unmarked) [Compound 556],2300,,(1) D. discoideum IC50 ([2]; Table 4): inactive
CC(C)CCc1ccc[n+](CC(P(=O)([O-])O)P(=O)(O)O)c1 (centres unmarked) [Compound 603],22,,
O=P([O-])(O)C(C[n+]1ccc2ccccc2c1)P(=O)(O)O (centres unmarked) [Compound 473],,20,"EC50 [1, 5]: 20.1 µM"
COc1cccc(-c2ccc[n+](CC(P(=O)([O-])O)P(=O)(O)O)c2)c1 (centres unmarked) [Compound 578],20,4,
O=P([O-])(O)C(O)(C[n+]1cccc(-c2ccc(C(F)(F)F)cc2)c1)P(=O)(O)O (centres unmarked) [Compound 449],12,4,
O=Cc1cccc(-c2ccc[n+](CC(P(=O)([O-])O)P(=O)(O)O)c2)c1 (centres unmarked) [Compound 532],41,4.1,
O=P([O-])(O)C(O)(C[n+]1cccc(-c2ccc(F)cc2)c1)P(=O)(O)O (centres unmarked) [Compound 462],15,2.7,
CCCCCCc1ccc[n+](CC(P(=O)([O-])O)P(=O)(O)O)c1 (centres unmarked) [Compound 598],35,1.7,
O=P([O-])(O)C(C[n+]1cccc(-c2ccc(F)c(F)c2)c1)P(=O)(O)O (centres unmarked) [Compound 533],19,,
O=P([O-])(O)C(C[n+]1ccc(Cc2ccccc2)cc1)P(=O)(O)O (centres unmarked) [Compound 481],,3.5,"EC50 [1, 5]: 83.4 µM"
O=P([O-])(O)C(C[n+]1ccccc1)P(=O)(O)O (centres unmarked) [Compound 470],,3.5,"EC50 [1, 5]: 3.3 µM"
O=P([O-])(O)C(O)(C[n+]1ccc2ccccc2c1)P(=O)(O)O (centres unmarked) [Compound 398],41,20,"IC50 [2, 6]: 20 µM; EC50 [1, 7]: 41 µM; EC50 [1, 5]: 40.6 µM"
COc1ccc[n+](CC(O)(P(=O)([O-])O)P(=O)(O)O)c1 (centres unmarked) [Compound 479],15,,
O=P([O-])(O)C(O)(CC[n+]1ccccc1)P(=O)(O)O (centres unmarked) [Compound 455],25,27,
CCCCc1ccc[n+](CC(P(=O)([O-])O)P(=O)(O)O)c1 (centres unmarked) [Compound 476],,2.3,"EC50 [1, 5]: 2 µM"
O=P([O-])(O)C(O)(C[n+]1ccc(C(F)(F)F)cc1)P(=O)(O)O (centres unmarked) [Compound 513],550,1500,
O=C(c1ccccc1)c1ccc[n+](CC(P(=O)([O-])O)P(=O)(O)O)c1 (centres unmarked) [Compound 530],6500,190,
O=P([O-])(O)C(C[n+]1ccccc1F)P(=O)(O)O (centres unmarked) [Compound 521],790,570,
Cc1cc(C)c[n+](CC(O)(P(=O)([O-])O)P(=O)(O)O)c1 (centres unmarked) [Compound 459],14,27,
O=P([O-])(O)C(C[n+]1cccc(Br)c1)P(=O)(O)O (centres unmarked) [Compound 483],,,"IC50 [2, 8]: 2.5 µM; EC50 ([1]; Homo sapiens, T-cell, read-out: gammadelta T cell stimulation EC50): 2.9 µM"
O=P([O-])(O)C(O)(C[n+]1cccc(C(F)(F)F)c1)P(=O)(O)O (centres unmarked) [Compound 520],,,"IC50 [2, 8]: 6.3 µM; EC50 [1, 9]: 14 µM"
Cc1ccc[n+](CC(P(=O)([O-])O)P(=O)(O)O)c1 (centres unmarked) [Compound 474],,4.4,"EC50 [1, 5]: 2.4 µM"
Cc1ccc2c(ccc[n+]2CC(O)(P(=O)([O-])O)P(=O)(O)O)c1 (centres unmarked) [Compound 452],250,73,

SMILES,"EC50 [1, 3] [µM]","IC50 [2, 4] [µM]",also measured
O=P([O-])(O)C(O)(C[n+]1ccc(Cc2ccccc2)cc1)P(=O)(O)O (centres unmarked) [Compound 443],230,12,"IC50 [2, 6]: 12 µM; activity in gammadelta T cell stimulation ([1]; TNF-α release): poor activity; EC50 [1, 7]: 230 µM; EC50 [1, 5]: 187 µM"
Cc1cc[n+](CC(O)(P(=O)([O-])O)P(=O)(O)O)cc1C (centres unmarked) [Compound 460],13,14,
CCc1ccc[n+](CC(O)(P(=O)([O-])O)P(=O)(O)O)c1 (centres unmarked) [Compound 444],5.1,5.6,"IC50 [2, 6]: 5.6 µM; EC50 [1, 7]: 5.1 µM; EC50 [1, 5]: 2.8 µM"
O=P([O-])(O)C(C[n+]1cccc(-c2ccccc2)c1)P(=O)(O)O (centres unmarked) [Compound 472],,2.5,"EC50 [1, 5]: 2.1 µM"
O=P([O-])(O)C(O)(C[n+]1ccc(-c2ccccc2)cc1)P(=O)(O)O (centres unmarked) [Compound 478],,760,(3) gammadelta T cell stimulation EC50 ([1]; Table 4): inactive
"CC([n+]1ccccc1)C(O)(P(=O)([O-])O)P(=O)(O)O (single isomer, unassigned) [Compound 583]",50,14,
O=P([O-])(O)C(C[n+]1ccc(-n2nnc3ccccc32)cc1)P(=O)(O)O (centres unmarked) [Compound 531],,20,(3) gammadelta T cell stimulation EC50 ([1]; Table 4): inactive
O=P([O-])(O)C(C[n+]1cc(F)cc(F)c1)P(=O)(O)O (centres unmarked) [Compound 523],11,4.6,
CC(C)C#Cc1ccc[n+](CC(P(=O)([O-])O)P(=O)(O)O)c1 (centres unmarked) [Compound 602],18,2.04,
CCCOc1cccc(-c2ccc[n+](CC(P(=O)([O-])O)P(=O)(O)O)c2)c1 (centres unmarked) [Compound 577],21,4.1,
CCCCOc1ccc(-c2ccc[n+](CC(P(=O)([O-])O)P(=O)(O)O)c2)cc1 (centres unmarked) [Compound 586],90,6,
CC(C)=CCc1ccc[n+](CC(P(=O)([O-])O)P(=O)(O)O)c1 (centres unmarked) [Compound 599],69,1.7,
CCCCOc1ccc(-c2ccc[n+](CC(O)(P(=O)([O-])O)P(=O)(O)O)c2)cc1 (centres unmarked) [Compound 600],290,11,
O=P([O-])(O)C(O)(C[n+]1cccc(Cl)c1)P(=O)(O)O (centres unmarked) [Compound 524],,,"IC50 [2, 8]: 2.4 µM; EC50 [1, 9]: 10 µM"
COc1cc[n+](CC(O)(P(=O)([O-])O)P(=O)(O)O)cc1 (centres unmarked) [Compound 456],19,27,
CCCCOc1cccc(-c2ccc[n+](CC(P(=O)([O-])O)P(=O)(O)O)c2)c1 (centres unmarked) [Compound 579],20,6,
CCc1ccc[n+](CC(P(=O)([O-])O)P(=O)(O)O)c1 (centres unmarked) [Compound 475],,4.1,"EC50 [1, 5]: 2.8 µM"
O=Cc1ccc[n+](CC(P(=O)([O-])O)P(=O)(O)O)c1 (centres unmarked) [Compound 525],11,8.4,
O=P([O-])(O)C(C[n+]1cccc(Cc2ccccc2)c1)P(=O)(O)O (centres unmarked) [Compound 480],,3,"EC50 [1, 5]: 68.7 µM"
O=P([O-])(O)C(C[n+]1ccc(C(F)(F)F)cc1)P(=O)(O)O (centres unmarked) [Compound 485],370,58,
Cc1ccc2ccc[n+](CC(O)(P(=O)([O-])O)P(=O)(O)O)c2c1 (centres unmarked) [Compound 457],1900,14,
O=P([O-])(O)C(O)(C[n+]1cccc2cc(Cl)ccc21)P(=O)(O)O (centres unmarked) [Compound 447],53,72,"IC50 [2, 6]: 72 µM; EC50 [1, 7]: 53 µM"
O=P([O-])(O)C(C[n+]1cccc(S(=O)(=O)N2CCCC2)c1)P(=O)(O)O (centres unmarked) [Compound 502],,100,(3) gammadelta T cell stimulation EC50 ([1]; Table 4): inactive
CCCCCCCCc1ccc[n+](CC(P(=O)([O-])O)P(=O)(O)O)c1 (centres unmarked) [Compound 605],6,,
CC(C)=CCCC(C)=CCc1ccc[n+](CC(P(=O)([O-])O)P(=O)(O)O)c1 (centres unmarked) [Compound 601],220,2.4,

# — patent US7745422B2, “Bisphosphonate compounds and methods for bone resorption diseases, cancer, bone pain, immune disorders, and infectious diseases” (The Board of Trustees of the University of Illinois, priority 2004, dated 2010)
